The source of these data is patent publication US20240342292A1, “Compounds for the Degradation of EGFR Kinase” (BeiGene Switzerland GmbH, priority 2021, published 2024).

In general, DC50 refers to the midpoint of the concentration-degradation curve. Read a high DC50 as degradation only at high concentration. The term Dmax denotes the largest share of the target that was removed. Read a low Dmax as shallow degradation.

One experiment relates to Del19/T790M/C797S EGFR. Kind of experiment: EGFR degradation HTRF assay in H1975-clone #28 (DTC) cells. It is filed as cell-based. The settings on record: H1975 # 28 DTC (Del19/T790M/C797S), 16h treatment; for DC50: HTRF; for Dmax (%): maximum percentage of degradation. In outline: (§1)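 Each homozygous H1975 clone was dosed for 16 h at 37 °C with an 8-dose, 5-fold series (top 10 uM, 0.2% DMSO). An HTRF antibody pair then measured EGFR in lysates, and a sigmoidal fit of percent inhibition gave DC50.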
In general terms: In TR-FRET formats the signal depends on donor and acceptor labels being close together.

For a further experiment, the target named is T1, L858R/T790M/C797S EGFR (Homo sapiens, UniProt P00533, C797S/L858R/T790M).
T1 construct: expressed in transfected cells; host or cells: H1975 clone #25 (lentiviral over-expression, endogenous EGFR knocked out by sgRNA)
Nature of the experiment: EGFR degradation HTRF assay in H1975-clone #25 (LTC) cells. It is filed as cell-based. The settings on record: 16h treatment; for DC50: H1975 # 25-LTC (L858R/T790M/C797S), HTRF; for Dmax: NCI-H1975, H1975 # 25-LTC (L858R/T790M/C797S), maximum percentage of degradation. In outline:
as §1

SMILES strings stand for the structures.

T1 sequence (P00533 25-1210 T790M/C797S/L858R): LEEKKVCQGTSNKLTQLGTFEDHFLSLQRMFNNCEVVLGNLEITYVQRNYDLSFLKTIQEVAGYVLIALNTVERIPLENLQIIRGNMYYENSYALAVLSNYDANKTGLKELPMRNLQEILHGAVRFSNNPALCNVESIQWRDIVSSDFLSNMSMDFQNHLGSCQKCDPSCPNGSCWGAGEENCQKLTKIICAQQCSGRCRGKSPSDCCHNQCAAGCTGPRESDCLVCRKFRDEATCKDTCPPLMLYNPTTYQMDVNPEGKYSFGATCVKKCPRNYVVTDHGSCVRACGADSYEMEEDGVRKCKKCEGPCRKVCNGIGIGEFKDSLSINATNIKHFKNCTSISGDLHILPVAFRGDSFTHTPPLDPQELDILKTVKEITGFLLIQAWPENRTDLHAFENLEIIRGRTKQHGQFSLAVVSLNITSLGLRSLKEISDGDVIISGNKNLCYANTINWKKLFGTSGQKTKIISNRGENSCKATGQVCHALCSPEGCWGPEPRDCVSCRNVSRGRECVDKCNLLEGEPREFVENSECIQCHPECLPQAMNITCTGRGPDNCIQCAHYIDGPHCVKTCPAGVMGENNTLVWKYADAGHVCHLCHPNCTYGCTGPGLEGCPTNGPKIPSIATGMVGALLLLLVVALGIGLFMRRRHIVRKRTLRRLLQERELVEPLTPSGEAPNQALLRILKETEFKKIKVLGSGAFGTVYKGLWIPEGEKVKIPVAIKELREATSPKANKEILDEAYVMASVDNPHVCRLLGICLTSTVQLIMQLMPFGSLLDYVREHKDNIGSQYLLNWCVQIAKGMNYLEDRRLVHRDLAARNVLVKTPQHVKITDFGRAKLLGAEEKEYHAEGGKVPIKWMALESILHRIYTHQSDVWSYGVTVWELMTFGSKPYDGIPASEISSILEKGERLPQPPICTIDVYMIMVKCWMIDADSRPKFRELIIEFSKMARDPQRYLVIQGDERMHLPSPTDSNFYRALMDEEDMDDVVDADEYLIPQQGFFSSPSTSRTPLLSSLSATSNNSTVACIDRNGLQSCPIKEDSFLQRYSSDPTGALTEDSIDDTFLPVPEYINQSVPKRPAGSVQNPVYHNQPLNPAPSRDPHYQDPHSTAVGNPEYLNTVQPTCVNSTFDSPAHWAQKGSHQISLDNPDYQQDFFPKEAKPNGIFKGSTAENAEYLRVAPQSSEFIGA

Consider `Cc1cc2cc(n1)-c1cnn(C)c1OCCC[C@@H](C)CN1/C(=N/C2=O)Nc2ccc(C(=O)N(C)[C@H]3CCN(C4CN(c5cc(F)c([C@H]6CCC(=O)NC6=O)c(F)c5)C4)CC3(F)F)cc21` [Example 359, (R,E)-N—((S)-1-(1-(4-((R)-2,6-dioxopiperidin-3-yl)-3,5-difluorophenyl)azetidin-3-yl)-3,3-difluoropiperidin-4-yl)-N,1^1,2^6,7-tetramethyl-3-oxo-5^2,5^3-dihydro-1^1H,5^1H-11-oxa-4-aza-5(2,1)-benzo[d]imidazola-2(2,4)-pyridina-1(4,5)-pyrazolacycloundecaphane-5^6-carboxamide], for which, in the experiment on Del19/T790M/C797S EGFR, the DC50 was found to be 0.751 nM and the “Dmax (%)” value was 83.57%. Moreover, at L858R/T790M/C797S EGFR, it took 0.841 nM to reach half-maximal degradation (DC50) and the Dmax is 87.1%.

For `Cc1cc2cc(n1)-c1cnn(C)c1OCCC[C@@H](C)CN1/C(=N/C2=O)Nc2ccc(CN3CCN(CC4CN(c5cc(F)c([C@H]6CCC(=O)NC6=O)c(F)c5)C4)CC3)cc21` [Example 150, (R)-3-(2,6-difluoro-4-(3-((4-(((R,E)-1^1,2^6,7-trimethyl-3-oxo-5^2,5^1-dihydro-1^1H,5^1H-11-oxa-4-aza-5(2,1)-benzo[d]imidazola-2(2,4)-pyridina-(4,5)-pyrazolacycloundecaphane-5^6-yl)methyl)piperazin-1-yl)methyl)azetidin-1-yl)phenyl)piperidine-2,6-dione], in the experiment on Del19/T790M/C797S EGFR, the half-maximal degradation concentration (DC50) stood at 2.17 nM and the “Dmax (%)” value was 79.66%. On L858R/T790M/C797S EGFR, this molecule returned a DC50 of 0.705 nM and a Dmax of 87.9%.

Consider `CO[C@@H]1CN(CCc2cc(F)c([C@H]3CCC(=O)NC3=O)c(F)c2)CC[C@H]1N(C)C(=O)c1ccc2c(c1)N1C[C@H](C)CCCOc3c(cnn3C)-c3cc(cc(C)n3)C(=O)/N=C/1N2` [Example 254, (R,E)-N—((3R,4R)-1-(4-((R)-2,6-dioxopiperidin-3-yl)-3,5-difluorophenethyl)-3-methoxypiperidin-4-yl)-N,1^1,2^6,7-tetramethyl-3-oxo-5^2,5^3-dihydro-1^1H,5^1H-11-oxa-4-aza-5(2,1)-benzo[d]imidazola-2(2,4) -pyridina-1(4,5)-pyrazolacycloundecaphane-5^6-carboxamide], for which, in the experiment with Del19/T790M/C797S EGFR, the DC50 was determined as 0.624 nM and the “Dmax (%)” value amounted to 86.3%. Also, on L858R/T790M/C797S EGFR, half-maximal degradation (DC50) was put at 0.91 nM and the maximal degradation (Dmax) was 91.2%.

For the molecule `Cc1cc2cc(n1)-c1cnn(C)c1OCCC[C@@H](C)CN1/C(=N/C2=O)Nc2ccc(N3CCN(CCN(C)c4ccc5c(c4)CN([C@H]4CCC(=O)NC4=O)C5=O)CC3)cc21` [Example 405, (S)-3-(5-(methyl(2-(4-((R,E)-1^1,2^6,7-trimethyl-3-oxo-5^2,5^3-dihydro-1^1H,5^1H-11-oxa-4-aza-5(2,1)-benzo[d]imidazola-2(2,4)-pyridina-1(4,5)-pyrazolacycloundecaphane-5^6-yl)piperazin-1-yl)ethyl)amino)-1-oxoisoindolin-2-yl)piperidine-2,6-dione], in the experiment with Del19/T790M/C797S EGFR, half-maximal degradation (DC50) was put at 1.26 nM and the “Dmax (%)” value is reported as 78.67%. Further, at L858R/T790M/C797S EGFR, the DC50 came to 0.677 nM and the Dmax amounted to 80.5%.

As for `Cc1cc2cc(n1)-c1cnn(C)c1OCC[C@H]1C[C@@H]1CN1/C(=N/C2=O)Nc2ccc(N3CCN(C4CCN(c5cc(F)c([C@H]6CCC(=O)NC6=O)c(F)c5)CC4)CC3)cc21` [Example 391, (R)-3-(4-(4-(4-((7^1S,7^2R,E)-1^1,2^6-dimethyl-3-oxo-5^2,5^3-dihydro-1^1H,5^1H-10-oxa-4-aza-5(2,1)-benzo[d]imidazola-2(2,4)-pyridina-1(4,5)-pyrazola-7(1,2)-cyclopropanacyclodecaphane-5^6-yl)piperazin-1-yl)piperidin-1-yl)-2,6-difluorophenyl)piperidine-2,6-dione], in the experiment on Del19/T790M/C797S EGFR, it took 1.54 nM to reach half-maximal degradation (DC50) and the “Dmax (%)” value was 85.34%. Further, at L858R/T790M/C797S EGFR, the DC50 stood at 1.56 nM and the maximal degradation (Dmax) came to 87.5%.

In the case of `Cc1cc2cc(n1)-c1cnn(C)c1OCCC[C@@H](C)CN1/C(=N/C2=O)Nc2ccc(C(=O)N[C@H]3CCN(CCc4cc(F)c([C@H]5CCC(=O)NC5=O)c(F)c4)CC3(F)F)cc21` [Example 337, (R,E)-N—((S)-1-(4-((R)-2,6-dioxopiperidin-3-yl)-3,5-difluorophenethyl)-3,3-difluoropiperidin-4-yl)-1^12^6,7-trimethyl-3-oxo-5^2,5^3-dihydro-1^1H,5^1H-11-oxa-4-aza-5(2,1)-benzo[d]imidazola-2(2,4)-pyridina-1(4,5)-pyrazolacycloundecaphane-5^6-carboxamide], in the experiment on Del19/T790M/C797S EGFR, it took 0.608 nM to reach half-maximal degradation (DC50) and the “Dmax (%)” value stood at 79.69%. On L858R/T790M/C797S EGFR, half-maximal degradation (DC50) was put at 0.535 nM and the Dmax worked out at 92%.

Turning to `CO[C@H]1CN(CCc2cc(F)c([C@H]3CCC(=O)NC3=O)c(F)c2)CC[C@H]1N(C)C(=O)c1ccc2c(c1)N1C[C@H](C)CCCOc3c(cnn3C)-c3cc(cc(C)n3)C(=O)/N=C/1N2` [Example 255, (R,E)-N—((3S,4R)-1-(4-((R)-2,6-dioxopiperidin-3-yl)-3,5-difluorophenethyl)-3-methoxypiperidin-4-yl)-N,1^1,2^6,7-tetramethyl-3-oxo-5^2,5^3-dihydro-1^1H,5^1H-11-oxa-4-aza-5(2,1)-benzo[d]imidazola-2(2,4) -pyridina-1(4,5)-pyrazolacycloundecaphane-5^6-carboxamide], in the experiment with Del19/T790M/C797S EGFR, the DC50 is 0.566 nM and the “Dmax (%)” value is recorded as 81.82%. Further, on L858R/T790M/C797S EGFR, the DC50 is 0.599 nM and the Dmax worked out at 91.1%.

Take `Cc1cc2cc(n1)-c1cnn(C)c1OCCC[C@@H](C)CN1/C(=N/C2=O)Nc2ccc(C(=O)N3CC(NCCc4cc(F)c([C@H]5CCC(=O)NC5=O)c(F)c4)C3)cc21` [Example 305, (R)-3-(2,6-difluoro-4-(2-((1-((R,E)-1^1,2^6,7-trimethyl-3-oxo-5^2,5^3-dihydro-1^1H,5^1H-11-oxa-4-aza-5(2,1)-benzo[d]imidazola-2(2,4)-pyridina-1(4,5)-pyrazolacycloundecaphane-5^6-carbonyl)azetidin-3-yl)amino)ethyl)phenyl)piperidine-2,6-dione]: in the experiment on Del19/T790M/C797S EGFR, the DC50 was 0.668 nM and the “Dmax (%)” value came to 80.65%. At L858R/T790M/C797S EGFR, this molecule showed a 50% degradation concentration (DC50) of 0.861 nM and a Dmax of 90.6%.

Consider `Cc1cc2cc(n1)-c1cnn(C)c1OCCC[C@@H](C)CN1/C(=N/C2=O)Nc2ccc(N3CCC(C(=O)N4CC(Oc5cc(F)c([C@H]6CCC(=O)NC6=O)c(F)c5)C4)CC3)cc21` [Example 403, (R)-3-(2,6-difluoro-4-((1-(1-((R,E)-1^1,2^6,7-trimethyl-3-oxo-5^2,5^3-dihydro-1^1H,5^1H-11-oxa-4-aza-5(2,1)-benzo[d]imidazola-2(2,4)-pyridina-1(4,5)-pyrazolacycloundecaphane-5^6-yl)piperidine-4-carbonyl)azetidin-3-yl)oxy)phenyl)piperidine-2,6-dione], for which, in the experiment on Del19/T790M/C797S EGFR, it took 0.857 nM to reach half-maximal degradation (DC50) and the “Dmax (%)” value is given as 82.98%. At L858R/T790M/C797S EGFR, this molecule came in with a DC50 of 1.07 nM and a maximal degradation (Dmax) of 87.5%.

As to `Cc1cc2cc(n1)-c1cnn(C)c1OCCC[C@@H](C)CN1/C(=N/C2=O)Nc2ccc(N3CCN(C[C@H]4CCN(c5cc(F)c([C@H]6CCC(=O)NC6=O)c(F)c5)C4)CC3=O)cc21` [Example 464, (R)-3-(2,6-difluoro-4-((R)-3-((3-oxo-4-((R,E)-1^1,2^6,7-trimethyl-3-oxo-5^2,5^3-dihydro-1^1H,5^1H-11-oxa-4-aza-5(2,1)-benzo[d]imidazola-2(2,4)-pyridina-1(4,5)-pyrazolacycloundecaphane-5^6-yl)piperazin-1-yl)methyl)pyrrolidin-1-yl)phenyl)piperidine-2,6-dione], in the experiment with Del19/T790M/C797S EGFR, it took 0.678 nM to reach half-maximal degradation (DC50) and the “Dmax (%)” value amounted to 82.71%. Besides, on L858R/T790M/C797S EGFR, half-maximal degradation (DC50) was put at 0.646 nM and the Dmax amounted to 85%.

For `Cc1cc2cc(n1)-c1cnn(C)c1OCCC[C@@H](C)CN1/C(=N/C2=O)Nc2ccc(N(C)C3CCN(C4CCN(c5cc(F)c([C@H]6CCC(=O)NC6=O)c(F)c5)CC4)CC3)cc21` [Example 214, (R)-3-(2,6-difluoro-4-(4-(methyl((R,E)-1^1,2^6,7-trimethyl-3-oxo-5^2,5^3-dihydro-1^1H,5^1H-11-oxa-4-aza-5(2,1)-benzo[d]imidazola-2(2,4)-pyridina-1(4,5)-pyrazolacycloundecaphane-5-yl)amino)-[1,4′-bipiperidin]-1′-yl)phenyl)piperidine-2,6-dione], in the experiment on Del19/T790M/C797S EGFR, the DC50 came to 1.32 nM and the “Dmax (%)” value was 72.32%. On L858R/T790M/C797S EGFR, this molecule showed a half-maximal degradation concentration (DC50) of 2.59 nM and a Dmax of 79.4%.

Consider `Cc1cc2cc(n1)-c1cnn(C)c1OCCC[C@@H](C)CN1/C(=N/C2=O)Nc2ccc(N3CCN(CCc4ccc(C5CCC(=O)NC5=O)nc4C)CC3)cc21` (stereo partly drawn) [Example 393, 3-(6-methyl-5-(2-(4-((R,E)-1^1,2^6,7-trimethyl-3-oxo-5^2,5^3-dihydro-1^1H,5^1H-11-oxa-4-aza-5(2,1)-benzo[d]imidazola-2(2,4)-pyridina-1(4,5)-pyrazolacycloundecaphane-5^6-yl)piperazin-1-yl)ethyl)pyridin-2-yl)piperidine-2,6-dione], for which, in the experiment with Del19/T790M/C797S EGFR, half-maximal degradation (DC50) was put at 0.54 nM and the “Dmax (%)” value came out at 77.73%. At L858R/T790M/C797S EGFR, this molecule showed a DC50 of 0.34 nM and a Dmax of 89.8%.
